# Test results reported in patent publication US9512111B2, “N-sulfonylated tetrahydroquinolines and related bicyclic compounds for inhibition of RORγ activity and the treatment of disease” (Lycera Corporation, priority 2010, dated 2016).
# Target: T1, RORγ-LBD (Homo sapiens, UniProt P51449)
# T1 construct: HIS-tagged RORγ-LBD was recombinantly expressed in SF9 cells; made in house; host or cells: SF9 cells (baculovirus); unpurified lysate
# T1 sequence (P51449 269-508 limits assumed): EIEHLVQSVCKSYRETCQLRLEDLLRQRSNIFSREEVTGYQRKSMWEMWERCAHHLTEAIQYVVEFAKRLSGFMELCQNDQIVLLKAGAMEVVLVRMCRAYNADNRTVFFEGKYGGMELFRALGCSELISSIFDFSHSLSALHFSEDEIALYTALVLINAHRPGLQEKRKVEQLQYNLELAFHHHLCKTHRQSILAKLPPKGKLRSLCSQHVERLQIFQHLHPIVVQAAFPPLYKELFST
# Experiment: RORγ-Ligand Binding Domain TR-FRET Assay
# Type: biochemical
# Settings: Table 8, indazoles
# Experimental: HIS-tagged RORγ-LBD was recombinantly expressed in SF9 cells using a baculovirus expression system. The protein was not purified. Cells were lysed and the lysate was used as a source for RORγ-LBD for the assay. A 1:80 dilution of RORγ-LBD lysate in assay buffer (25 mM HEPES pH 7.0, 100 mM NaCl, 0.01% Tween, 0.1% BSA) was prepared and 5 μL was added to each well (RORγ-LBD final concentration ˜10 nM). Control wells received lysate from SF9 cells not expressing RORγ-LBD.
# Compounds to be tested were diluted to 100× final test concentration in DMSO and further diluted to 4× final test concentration using assay buffer to provide the test compound mixture. An aliquot (5 μL) of the test compound mixture was added to each well.
# A 4× stock of biotinylated-LXXLL peptide from SRC1-2 (Biotin-[…]) was prepared in assay buffer and a 5 μL aliquot added to each well (450 nM final concentration). A 4× solution of europium tagged anti-HIS antibody (2 nM final concentration) and APC conjugated streptavidin (60 nM final concentration) were prepared and a 5 μL aliquot added to each well.
# The final assay mixture was incubated for 4 hours to overnight, and the fluorescence signal was measured on an Envision plate reader: (Excitation filter=340 nm; APC emission=665 nm; Europium emission=615 nm; dichroic mirror=D400/D630; delay time=100 μs, integration time=200 μs).
# IC50 values for test compounds were calculated from the quotient of the fluorescence signal at 665 nm divided by the fluorescence signal at 615 nm using GraphPad Prism software.
row,IC50 [µM],SMILES
1,< 15,Cc1ccc(F)c(S(=O)(=O)n2ncc3ccc(NC(=O)c4c(F)cccc4Cl)cc32)c1 [Compound V-101]
2,< 15,Cc1c(F)cccc1S(=O)(=O)n1ncc2ccc(NC(=O)c3c(F)cccc3Cl)cc21 [Compound V-102]
3,< 15,Cc1ccc(S(=O)(=O)n2ncc3ccc(NC(=O)c4c(F)cccc4Cl)cc32)c(C)c1 [Compound V-103]
4,< 15,Cc1nn(C(F)F)cc1S(=O)(=O)n1ncc2ccc(NC(=O)c3c(F)cccc3Cl)cc21 [Compound V-104]
5,< 15,O=C(Nc1ccc2cnn(S(=O)(=O)C3CC3c3ccccc3)c2c1)c1c(F)cccc1Cl (stereo not drawn) [Compound V-105]
6,< 15,CC(C)(C)c1cccc(S(=O)(=O)n2ncc3ccc(NC(=O)c4c(F)cccc4Cl)cc32)c1 [Compound V-106]
7,< 15,CNC(=O)c1cccc(S(=O)(=O)n2ncc3ccc(NC(=O)c4c(F)cccc4Cl)cc32)c1 [Compound V-107]
8,< 15,COC(=O)c1cccc(S(=O)(=O)n2ncc3ccc(NC(=O)c4c(F)cccc4Cl)cc32)c1 [Compound V-108]
9,< 15,COC(=O)c1ccc(S(=O)(=O)n2ncc3ccc(NC(=O)c4c(F)cccc4Cl)cc32)cc1 [Compound V-109]
10,< 15,Cc1c(S(=O)(=O)n2ncc3ccc(NC(=O)c4c(F)cccc4Cl)cc32)cnn1C [Compound V-110]
11,< 15,COc1ccccc1S(=O)(=O)n1ncc2ccc(NC(=O)c3c(F)cccc3Cl)cc21 [Compound V-111]
12,< 15,Cn1cc(S(=O)(=O)n2ncc3ccc(NC(=O)c4c(F)cccc4Cl)cc32)cn1 [Compound V-112]
13,< 15,CCn1cc(S(=O)(=O)n2ncc3ccc(NC(=O)c4c(F)cccc4Cl)cc32)cn1 [Compound V-113]
14,< 15,O=C(Nc1ccc2cnn(S(=O)(=O)c3cc(F)cc(F)c3)c2c1)c1c(F)cccc1Cl [Compound V-114]
15,< 15,CCCc1ccc(S(=O)(=O)n2ncc3ccc(NC(=O)c4c(F)cccc4Cl)cc32)cc1 [Compound V-115]
16,< 15,CCc1ccc(S(=O)(=O)n2ncc3ccc(NC(=O)c4c(F)cccc4Cl)cc32)cc1 [Compound V-116]
17,< 15,Cc1ccc(C)c(S(=O)(=O)n2ncc3ccc(NC(=O)c4c(F)cccc4Cl)cc32)c1 [Compound V-117]
18,< 15,Cc1ccc(S(=O)(=O)n2ncc3ccc(NC(=O)c4c(F)cccc4Cl)cc32)c(F)c1 [Compound V-118]
19,< 15,Cc1ccccc1CS(=O)(=O)n1ncc2ccc(NC(=O)c3c(F)cccc3Cl)cc21 [Compound V-119]
20,< 15,CC(C)c1ccc(S(=O)(=O)n2ncc3ccc(NC(=O)c4c(F)cccc4Cl)cc32)cc1 [Compound V-120]
21,< 15,N#Cc1cccc(S(=O)(=O)n2ncc3ccc(NC(=O)c4c(F)cccc4Cl)cc32)c1 [Compound V-121]
22,< 15,CC(=O)c1cccc(S(=O)(=O)n2ncc3ccc(NC(=O)c4c(F)cccc4Cl)cc32)c1 [Compound V-122]
23,< 15,Cc1cc(C)cc(S(=O)(=O)n2ncc3ccc(NC(=O)c4c(F)cccc4Cl)cc32)c1 [Compound V-123]
24,< 15,Cc1cccc(S(=O)(=O)n2ncc3ccc(NC(=O)c4c(F)cccc4Cl)cc32)c1 [Compound V-124]
25,< 15,Cc1ccc(S(=O)(=O)n2ncc3ccc(NC(=O)c4c(F)cccc4Cl)cc32)cc1F [Compound V-125]
26,< 15,O=C(Nc1ccc2cnn(S(=O)(=O)c3cc(Cl)cc(Cl)c3)c2c1)c1c(F)cccc1Cl [Compound V-126]
27,< 15,Cc1ccc(S(=O)(=O)n2ncc3ccc(NC(=O)c4c(F)cccc4Cl)cc32)cc1Cl [Compound V-127]

row,IC50 [µM],SMILES
1,< 15,O=C(Nc1ccc2cnn(S(=O)(=O)c3c(F)cccc3F)c2c1)c1c(F)cccc1Cl [Compound V-128]
2,< 15,Cc1ccccc1S(=O)(=O)n1ncc2ccc(NC(=O)c3c(F)cccc3Cl)cc21 [Compound V-129]
3,< 15,O=C(Nc1ccc2cnn(S(=O)(=O)c3ccccc3OC(F)(F)F)c2c1)c1c(F)cccc1Cl [Compound V-130]
4,< 15,O=C(Nc1ccc2cnn(S(=O)(=O)c3ccc(I)cc3)c2c1)c1c(F)cccc1Cl [Compound V-131]
5,< 15,O=C(Nc1ccc2cnn(S(=O)(=O)c3ccccc3C(F)(F)F)c2c1)c1c(F)cccc1Cl [Compound V-132]
6,< 15,CNC(=O)Nc1ccc(S(=O)(=O)n2ncc3ccc(NC(=O)c4c(F)cccc4Cl)cc32)cc1Cl [Compound V-133]
7,< 15,CN(C)C(=O)Nc1ccc(S(=O)(=O)n2ncc3ccc(NC(=O)c4c(F)cccc4Cl)cc32)cc1 [Compound V-134]
8,< 15,CNC(=O)Nc1ccc(S(=O)(=O)n2ncc3ccc(NC(=O)c4c(F)cccc4Cl)cc32)cc1 [Compound V-135]
9,< 15,O=C(Nc1ccc2cnn(S(=O)(=O)c3ccccc3Cl)c2c1)c1c(F)cccc1Cl [Compound V-136]
10,< 15,O=C(Nc1ccc2cnn(S(=O)(=O)Cc3cccc(C(F)(F)F)c3)c2c1)c1c(F)cccc1Cl [Compound V-137]
11,< 15,O=C(Nc1ccc2cnn(S(=O)(=O)Cc3cc(Cl)cc(Cl)c3)c2c1)c1c(F)cccc1Cl [Compound V-138]
12,< 15,O=C(Nc1ccc2cnn(S(=O)(=O)Cc3ccc(Cl)c(Cl)c3)c2c1)c1c(F)cccc1Cl [Compound V-139]
13,< 15,O=C(Nc1ccc2cnn(S(=O)(=O)Cc3ccc(C(F)(F)F)cc3)c2c1)c1c(F)cccc1Cl [Compound V-140]
14,< 15,CC(=O)c1ccc(S(=O)(=O)n2ncc3ccc(NC(=O)c4c(F)cccc4Cl)cc32)cc1 [Compound V-141]
15,< 15,COC(=O)c1ccccc1S(=O)(=O)n1ncc2ccc(NC(=O)c3c(F)cccc3Cl)cc21 [Compound V-142]
16,< 15,O=C(Nc1ccc2cnn(S(=O)(=O)c3ccccc3F)c2c1)c1c(F)cccc1Cl [Compound V-143]
17,< 15,COC(=O)c1sccc1S(=O)(=O)n1ncc2ccc(NC(=O)c3c(F)cccc3Cl)cc21 [Compound V-144]
18,< 15,Cc1c(Cl)cccc1S(=O)(=O)n1ncc2ccc(NC(=O)c3c(F)cccc3Cl)cc21 [Compound V-145]
19,< 15,N#Cc1ccc(S(=O)(=O)n2ncc3ccc(NC(=O)c4c(F)cccc4Cl)cc32)c(Cl)c1 [Compound V-146]
20,< 15,Cn1cnc(S(=O)(=O)n2ncc3ccc(NC(=O)c4c(F)cccc4Cl)cc32)c1 [Compound V-147]
21,< 15,COc1cccc(S(=O)(=O)n2ncc3ccc(NC(=O)c4c(F)cccc4Cl)cc32)c1 [Compound V-148]
22,< 15,CC(=O)Nc1ccc(S(=O)(=O)n2ncc3ccc(NC(=O)c4c(F)cccc4Cl)cc32)cc1Cl [Compound V-149]
23,< 15,COC(=O)c1cc(S(=O)(=O)n2ncc3ccc(NC(=O)c4c(F)cccc4Cl)cc32)oc1C [Compound V-150]
24,< 15,COC(=O)c1ccc(S(=O)(=O)n2ncc3ccc(NC(=O)c4c(F)cccc4Cl)cc32)o1 [Compound V-151]
25,< 15,COC(=O)c1cc(C)c(S(=O)(=O)n2ncc3ccc(NC(=O)c4c(F)cccc4Cl)cc32)s1 [Compound V-152]
26,< 15,O=C(Nc1ccc2cnn(S(=O)(=O)c3ccc(OC(F)(F)F)cc3)c2c1)c1c(F)cccc1Cl [Compound V-153]
27,< 15,O=C(Nc1ccc2cnn(S(=O)(=O)c3ccc(Cl)c(Cl)c3)c2c1)c1c(F)cccc1Cl [Compound V-154]
